Values quoted from earlier work, collected in patent US20050136114A1, “Taste masked pharmaceutical compositions comprising bitter drug and pH sensitive polymer” (COUNCIL OF SCIENTIFIC AND INDUSTRIAL RESEARCH, priority 2003, published 2005).

Legend:
[1] = oral, humans
[2] = in presence of Eudragit E

CO/N=C(\C(=O)N[C@@H]1C(=O)N2C(C(=O)OC(C)OC(C)=O)=C(COC(N)=O)CS[C@H]12)c1ccco1 (some centres unmarked) [cefuroxime axetil]
bioavailability [1]: 32-50% | degradation [2]: significant degradation
